The record followed here is publication PMC9692424, “In Vitro Screening for Anti-Acetylcholinesterase and Antioxidant Activities of Hottonia palustris L. Extracts and Their Unusual Flavonoids” (Molecules, 2022).

Like-named read-outs stand apart in the source and are kept apart here.

A short description of test [1]: Ferric-reducing antioxidant power method (FRAP). Particulars: compounds 1–19; ferrous ion equivalents; mean ± SD, triplicate; na = no significant activity.
Procedure: The ferric-reducing power was measured using the Ferric-Reducing Antioxidant Power Assay Kit. In brief, 10 µL of the tested solution was added to 190 µL of the reaction solutions (containing FRAP Assay Buffer, FeCl3 solution, and FRAP Probe). All of the absorbance values were recorded at 594 nm after 1 h of incubation at 37 °C. The chelating activity was determined using a standard curve and evaluated as mM of ferrous ion equivalents. All tests were performed in triplicate.
Test [2] in a line: Cupric ion reducing method (CUPRAC). The conditions noted are these: compounds 1–19; Trolox equivalents; mean ± SD, triplicate; na = no significant activity. The protocol: The total antioxidant capacity was determined using an Antioxidant Assay Kit MAK334. In short, 20 µL of each fraction or compound solution was added to 100 µL of the Reaction Mix in the clear, flat-bottomed 96-well plate. The absorbance was measured at 570 nm after 10 min of incubation at room temperature. The results were determined using a standard curve evaluated for Trolox.

Test [3] addresses acetylcholinesterase (AChE) (Homo sapiens, UniProt P22303). Kind of test: biochemical.
Procedure: Acetylcholinesterase inhibition was determined according to the previously described method [34] with a slight modification. The assay was carried out in Tris-HCl buffer (pH = 8 at 25 °C). The test extracts or compounds were diluted in the same buffer to the appropriate concentrations. Firstly, the reaction mixture containing the sample solution (50 µL), AChE solution (25 µL, 0.25 U/mL), and Ellman’s Reagent (3 mM, 125 µL) was incubated for 15 min at room temperature. Subsequently, 25 µL of ACh iodide (15 mM) was added, and after a further quarter-hour of incubation, the absorbance was estimated at 405 nm. The blank well contained the same amount of Tris-HCl buffer instead of the sample solution. […] All measurements were conducted in triplicate, and the values are presented as IC50 means with standard deviations (SDs). The percent inhibition was calculated using the following formula:Enzyme inhibition activity (%) = (B − S)/B × 100% where B is the blank, and S is the sample absorbance.
A short description of test [4]: ABTS radical cation scavenging activity (Antioxidant Assay Kit). The conditions noted are these: compounds 1–19; Trolox equivalents; mean ± SD, triplicate.
Procedure: The potential inhibition of the production of the radical cation was measured using an Antioxidant Assay Kit. In short, the mixed solution, including 10 µL of the test sample, 20 µL of the myoglobin working solution, and 150 µL of the ABTS working solution, was incubated for 5 min. Then, 100 µL of the stop solution was added, and the absorbance was measured at 405 nm. All tests were performed in triplicate. The results were expressed as µM of Trolox equivalents obtained from the standard curve.
The nature of test [5]: Free radical scavenging activity (DPPH assay). Particulars: compounds 1–19; Trolox equivalents; mean ± SD, triplicate. Background: The DPPH test is a chemical assay of radical scavenging.
Procedure: The methanolic solutions of fractions or compounds (130 µL) were added to the DPPH solution (70 µL). The sample’s absorbance was recorded after 30 min of incubation in darkness. All tests were performed in triplicate [33]. The radical scavenging activity of the tested samples was calculated using an equation obtained through linear regression of the Trolox standard curve. The methanolic solutions of fractions or compounds (130 µL) were added to the DPPH solution (70 µL). The sample absorbance was recorded after 30 min of incubation in darkness. All tests were performed in triplicate [33]. The radical scavenging activity of the tested samples was calculated using the equation obtained through linear regression of the Trolox standard curve.
[6] abbreviates: compounds 1–19, mean ± SD, at least triplicate, read-out: AChE IC50.

acetylcholinesterase (AChE), sequence (P22303 32-614): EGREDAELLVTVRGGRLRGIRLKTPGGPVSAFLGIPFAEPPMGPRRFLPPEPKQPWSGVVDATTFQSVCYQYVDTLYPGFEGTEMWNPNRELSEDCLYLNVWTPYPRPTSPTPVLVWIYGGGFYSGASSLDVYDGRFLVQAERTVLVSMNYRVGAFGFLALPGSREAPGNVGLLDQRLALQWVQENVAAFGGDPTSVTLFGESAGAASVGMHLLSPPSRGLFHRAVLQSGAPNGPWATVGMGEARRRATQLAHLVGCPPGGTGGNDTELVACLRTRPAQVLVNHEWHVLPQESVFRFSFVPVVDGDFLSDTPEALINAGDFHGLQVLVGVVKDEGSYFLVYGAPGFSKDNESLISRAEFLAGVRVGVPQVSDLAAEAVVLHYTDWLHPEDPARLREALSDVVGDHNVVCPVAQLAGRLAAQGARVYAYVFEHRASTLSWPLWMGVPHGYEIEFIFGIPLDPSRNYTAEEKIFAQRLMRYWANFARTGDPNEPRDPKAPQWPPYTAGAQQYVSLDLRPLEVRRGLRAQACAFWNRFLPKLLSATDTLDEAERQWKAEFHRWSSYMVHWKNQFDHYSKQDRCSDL

As a reminder, the IC50 is the midpoint of a concentration-inhibition curve. Regarding `O=c1cc(-c2ccccc2)oc2ccc(O)c(O)c12` [Compound 12, 5,6-dihydroxyflavone], the FRAP in test [1] is recorded as 54.25 ± 1.03 mM Fe^2+/mL. For the same compound, the CUPRAC in test [2] came to 1060.42 ± 5.33 µM Teq. The IC50 in test [3] (setting [6]) was determined as 362.2 ± 0.39 µM. In test [4], the ABTS stood at 1052.41 ± 5.51 µM Teq. For the same compound, the DPPH in test [5] amounted to 1522.38 ± 7.31 µM Teq.

With `O=C(CC(=O)c1ccccc1)c1ccccc1` [Compound 1, 1,3-diphenylpropane-1,3-dione], in test [2], the CUPRAC turned out to be 3.18 ± 0.32 µM Teq. Also, the IC50 in test [3] (setting [6]) worked out at 144.8 ± 1.3 µM. In addition, the ABTS in test [4] is 300.12 ± 4.97 µM Teq. In test [5], the DPPH is listed as 39.81 ± 2.76 µM Teq.

With `O=c1cc(-c2ccccc2O)oc2cccc(O)c12` [Compound 11, 5,2′-dihydroxyflavone], in test [1], the FRAP is 0.07 ± 0.01 mM Fe^2+/mL. Also, the CUPRAC in test [2] is 44.50 ± 1.35 µM Teq. Moreover, the 50% inhibitory concentration (IC50) in test [3] (setting [6]) was determined as 371.5 ± 0.66 µM. Also, the ABTS in test [4] was 661.30 ± 3.81 µM Teq. Further, in test [5], the DPPH came to 175.83 ± 2.83 µM Teq.

For `C[C@@H]1O[C@@H](OC[C@H]2O[C@@H](Oc3c(-c4ccc(O)c(O)c4)oc4cc(O)cc(O)c4c3=O)[C@H](O)[C@@H](O)[C@@H]2O)[C@H](O)[C@H](O)[C@H]1O` [Compound 19, quercetin 3-O-(6″-O-α-rhamnopyranosyl)-β-glucopyranoside], the FRAP in test [1] is on record as 52.98 ± 1.35 mM Fe^2+/mL. Also, in test [2], the CUPRAC was 1258.68 ± 3.49 µM Teq. Half-maximal inhibition in test [3] (IC50) required 445.32 ± 0.35 µM. In addition, the ABTS in test [4] is on record as 1149.16 ± 5.25 µM Teq. The DPPH in test [5] stood at 1467.53 ± 5.48 µM Teq.

As to `COc1cccc(OC)c1-c1cc(=O)c2c(O)cccc2o1` [Compound 4, 5-hydroxy-2’,6’-dimethoxyflavone], the IC50 in test [3] (setting [6]) was found to be 325.4 ± 3.21 µM. The ABTS in test [4] amounted to 326.76 ± 6.64 µM Teq. In test [5], the DPPH was 28.63 ± 2.40 µM Teq.

Take `COc1ccc(OC)c(-c2cc(=O)c3c(O)cccc3o2)c1OC` [Compound 5, 5-hydroxy-2’,3’,6’-trimethoxyflavone]: the IC50 in test [3] (setting [6]) was 284.6 ± 0.8 µM. The ABTS in test [4] came to 280.02 ± 1.55 µM Teq. The DPPH in test [5] is listed as 34.32 ± 0.97 µM Teq.

For the compound `O=c1c(OC2OC(COC3OCC(O)C(O)C3O)C(O)C(O)C2O)c(-c2ccc(O)cc2)oc2cc(O)cc(O)c12` (stereo not drawn) [Compound 16, kaempferol-3-O-(6″-O-β-xylopyranosyl)-β-glucopyranoside], in test [1], the FRAP is on record as 0.67 ± 0.06 mM Fe^2+/mL. In addition, in test [2], the CUPRAC came to 74.40 ± 1.49 µM Teq. For the same compound, the IC50 in test [3] (setting [6]) is 364.3 ± 1.79 µM. Also, the ABTS in test [4] is given as 717.32 ± 3.47 µM Teq. Also, the DPPH in test [5] amounted to 300.29 ± 1.87 µM Teq.

`CC1OC(OCC2OC(Oc3c(-c4ccc(O)cc4)oc4cc(O)cc(O)c4c3=O)C(O)C(O)C2O)C(O)C(O)C1O` (stereo not drawn) [Compound 15, kaempferol 3-O-(6″-O-α-rhamnopyranosyl)-β-glucopyranoside]: the FRAP in test [1] is 0.40 ± 0.06 mM Fe^2+/mL. Also, in test [2], the CUPRAC was 56.81 ± 1.52 µM Teq. Besides, in test [3] (setting [6]), the IC50 was found to be 407.4 ± 1.41 µM. Besides, the ABTS in test [4] stood at 702.29 ± 2.47 µM Teq. Moreover, in test [5], the DPPH was found to be 250.72 ± 1.65 µM Teq.

`COc1ccc2oc(-c3ccccc3O)cc(=O)c2c1O` [Compound 6, 2’,5-dihydroxy-6-methoxyflavone]: the FRAP in test [1] came out at 15.81 ± 0.85 mM Fe^2+/mL. Besides, in test [2], the CUPRAC worked out at 366.29 ± 1.24 µM Teq. Besides, the IC50 in test [3] (setting [6]) was 391.8 ± 1.06 µM. For the same compound, in test [4], the ABTS turned out to be 781.28 ± 4.38 µM Teq. In addition, in test [5], the DPPH stood at 227.55 ± 2.85 µM Teq.

Regarding `O=c1cc(-c2ccccc2)oc2ccc(OC3OC(COC4OC(CO)C(O)C(O)C4O)C(O)C(O)C3O)c(O)c12` (stereo not drawn) [Compound 10, 5,6-dihydroxyflavone 6-O-(6″-O-glucopyranosyl)-β-glucopyranoside], the CUPRAC in test [2] is 19.79 ± 1.03 µM Teq. In test [3] (setting [6]), the IC50 worked out at 376.1 ± 1.87 µM. Moreover, the ABTS in test [4] amounted to 624.94 ± 5.70 µM Teq. In addition, in test [5], the DPPH came to 204.31 ± 3.31 µM Teq.

In the case of `COc1ccccc1-c1cc(=O)c2c(O)cccc2o1` [Compound 3, 5-hydroxy-2′-methoxyflavone], the concentration for half-maximal inhibition (IC50) in test [3] (setting [6]) is 279.7 ± 0.45 µM. In addition, the ABTS in test [4] is 330.59 ± 4.04 µM Teq. Further, in test [5], the DPPH is 39.39 ± 1.59 µM Teq.

As to `O=c1c(OC2OC(COC3OCC(O)C(O)C3O)C(O)C(O)C2O)c(-c2ccc(O)c(O)c2)oc2cc(O)cc(O)c12` (stereo not drawn) [Compound 18, quercetin 3-O-(6″-O-β-xylopyranosyl)-β-glucopyranoside], the FRAP in test [1] is given as 63.98 ± 1.75 mM Fe^2+/mL. Also, the CUPRAC in test [2] is 1401.11 ± 2.64 µM Teq. The IC50 in test [3] (setting [6]) is 303 ± 3.33 µM. The ABTS in test [4] is reported as 1147.52 ± 7.06 µM Teq. For the same compound, in test [5], the DPPH stood at 1336.75 ± 6.33 µM Teq.

Consider `COc1ccc(O)c(-c2cc(=O)c3c(O)cccc3o2)c1OC` [Compound 7, 5,6′-dihydroxy-2′,3′-dimethoxyflavone], for which the IC50 in test [3] (setting [6]) is 390.8 ± 0.66 µM. Besides, the ABTS in test [4] is 277.56 ± 2.88 µM Teq. For the same compound, the DPPH in test [5] was 37.85 ± 1.90 µM Teq.

With `O=c1cc(-c2ccccc2)oc2cc(O)cc(O)c12` [Compound 13, 5,7-dihydroxyflavone], in test [1], the FRAP stood at 0.08 ± 0.01 mM Fe^2+/mL. Moreover, the IC50 in test [3] (setting [6]) came out at 330.1 ± 1.77 µM. Besides, the ABTS in test [4] turned out to be 728.26 ± 1.08 µM Teq. Besides, the DPPH in test [5] amounted to 227.51 ± 1.83 µM Teq.

On to `O=c1cc(-c2ccccc2O[C@@H]2O[C@H](CO)[C@@H](O)[C@H](O)[C@H]2O)oc2cccc(O)c12` [Compound 9, 5,2′-dihydroxyflavone 2′-O-β-glucopyranoside], for which the CUPRAC in test [2] was 20.33 ± 1.57 µM Teq. For the same compound, the IC50 in test [3] (setting [6]) worked out at 399.7 ± 0.64 µM. Also, the ABTS in test [4] was determined as 204.59 ± 2.26 µM Teq. In addition, the DPPH in test [5] is listed as 170.56 ± 2.49 µM Teq.

Consider `O=c1cc(-c2ccccc2)oc2cccc(O)c12` [Compound 2, 5-hydroxyflavone], for which, in test [3] (setting [6]), the IC50 worked out at 314.4 ± 1.72 µM. Further, the ABTS in test [4] was 317.47 ± 3.91 µM Teq. Besides, the DPPH in test [5] amounted to 41.71 ± 2.28 µM Teq.

Regarding `O=c1c(O)c(-c2ccc(O)cc2)oc2cc(O)cc(O)c12` [Compound 17, kaempferol], the FRAP in test [1] is 36.87 ± 1.20 mM Fe^2+/mL. Further, the CUPRAC in test [2] is on record as 848.64 ± 3.49 µM Teq. In test [3], this compound displayed an IC50 of 276.9 ± 1.41 µM. Moreover, the ABTS in test [4] is recorded as 1095.04 ± 1.85 µM Teq. For the same compound, the DPPH in test [5] is 792.53 ± 7.31 µM Teq.
